Entries after “also recorded” stand apart in the source; their conditions may differ.
Columns and labels:
[1] = SFT for CMC determination (surface tension, Wilhelmy plate technique); format: physicochemical; conditions: air/water interface, (20.0±0.5)° C.
Method: SFT for CMC determination. The surface activity of the compounds of the invention in solution at the air/water interface was determined using a K100 tensiometer (Kruss, Hamburg, Germany). Surface tensions were determined by dilution of stock solutions (13 g/L for compound 5a (cyF6H3Malt), 4.6 g/L for compound 5b (cyF6H4Malt), 2 g/L for compound 5c (cyF6H5Malt), 10 g/L for compound 8a (isoF5H3Malt), 1.7 g/L for compound 8c (isoF5H5Malt) and 0.4 g/L for compound 8b (isoF7H3Malt), ˜4×CMC) using the Wilhelmy plate technique. In a typical experiment, 13 concentration steps were prepared from solutions equilibrated overnight before measurement. All measurements were performed at (20.0±0.5)° C. until standard deviation reach ±0.05 or during at least 30 min.

[2] = system: membrane-proteins from native E. coli membranes; test: Extraction of membrane-proteins from native E. coli membranes, SDS-PAGE quantification; conditions: for membrane-protein extraction / solubilization efficiency (in words): CMC+1, 2, 5, 10 mM, at least 16 h at 20° C., yields relative to buffer without detergent
Method: Solubilization of Membrane-Proteins from native E. coli membranes. E. coli BL21(DE3) cells were transformed with an empty pET-24 vector and selected by kanamycin resistance. After incubation in 400 mL lysogeny broth overnight at 37° C. under constant agitation (150 rpm), cells were harvested by centrifugation and washed twice with saline (154 mM NaCl). Cell pellets were resuspended in ice-cold buffer (100 mM Na2CO3, pH 11.5) and subjected to ultrasonication in an S-250A sonifier (Branson Ultrasonics, Danbury, USA) twice for 10 min each. To remove cell debris, the lysate was centrifuged at 4° C. for 20 min at 7149 rpm (3000 g). The supernatant was ultracentrifuged at 4° C. for 1 h at 31 400 rpm (100,000 g) to separate membrane fragments from soluble and peripheral proteins. Membrane pellets were washed and suspended in working buffer, ultracentrifuged again at 4° C. for 1 h at 31 400 rpm (100,000 g) to remove any residual soluble or peripheral proteins. The resulting pellets were resuspended in buffer (50 mM Tris, 200 mM NaCl, pH 7.4) to a final concentration of 100 mg wet-weight pellet per 1 mL of buffer and mixed in a 1:1 volume ratio with stock solutions of the compounds of the invention in buffer. All samples were incubated for at least 16 h at 20° C. under constant, gentle agitation (500 rpm) and subsequently ultracentrifuged at 4° C. for 1 h at 51 000 rpm (100,000 g). The solubilized supernatant containing micelles was analyzed using SDS-PAGE.
Sodium dodecyl sulphate polyacrylamide gel electrophoresis (SDS-PAGE). The solubilization efficiency of compound 5a, F6OM, F6OPC and DDM on biological membranes was assessed by SDS-PAGE using a NuPAGE Bis-Tris system (Life Technologies, Carlsbad, USA) with a polyacrylamide gradient of 4-12%. 14-μL samples were mixed with 5 μL 4×SDS sample buffer (106 mM Tris HCl, 141 mM Tris base, 2% (w v) SDS, 10% (w v) glycerol, 0.51 mM EDTA, 0.22 mM SERVA Blue G250, and 0.175 mM Phenol Red, pH 8.5) and 1 μL 1 M dithiothreitol (DTT) and boiled at 95° C. for 10 min. 12 μL of each sample was loaded on a ready-to-use NuPAGE. As reference, a standard-weight marker (Roti-Mark 10-150, Carl Roth, Karlsruhe, Germany) was used, and the working buffer was used as negative control. […] For quantification of solubilization efficiencies, gels were photographed with a C4000Z camera (Olympus, Tokyo, Japan), and protein bands were analyzed with ImageJ software.
Results. The intensities (i.e., pixel counts) of SDS-PAGE band patterns (FIG. 2) were analyzed to provide the overall protein-extraction yields which were expressed relative to the buffer without any detergent.

[3] = 100 μM POPC LUVs, detergent at CMC+ca. 5 mM, 25° C., light scattering at 90°
Method: Preparation of lipid vesicles. To prepare LUVs, POPC in powder form was weighed on a high-precision XP Delta Range microbalance (Mettler Toledo, Greifensee, Switzerland) and suspended in phosphate buffer (10 mM Na2HIPO4/NaH2PO4, 150 mM NaCl, pH 7.4). The solution was vortexed for 15 min at room temperature and extruded in a LiposoFast extruder (Avestin, Mannheim, Germany) with at least 35 extrusion steps through two stacked polycarbonate membranes with a pore diameter of 100 nm (Avestin). The hydrodynamic diameter of the LUVs was distributed around 120-130 nm, as shown by DLS.
Kinetics of vesicle solubilization. For vesicle solubilization kinetics, measurements were conducted by adding a high concentration (ca. 5 mM) of the compound of the invention above its CMC to 100 μM POPC LUVs in a 3 mm×3 mm quartz glass cuvette. […] Measurements were started immediately after mixing the vesicle suspension to monitor changes in light scattering intensity, Iscatter at an angle of 90° and at 25° C.
The solubilization of preformed large unilamellar vesicles (LUVs) composed of the singly unsaturated phospholipid 1-palmitoyl-2-oleyl-sn-glycero-3-phosphocholine (POPC) was investigated.

[4] = literature value; cited from earlier work

| Structure (SMILES) | CMC (critical micellar concentration) [1] | γCMC (surface tension at the CMC) [1] | membrane-protein extraction / solubilization efficiency (in words) [2] | solubilization efficiency at low concentrations, compared with DDM (in words) ([2]; low concentrations, CMC+1-5 mM) | time to complete solubilization of LUVs [3] | CMC [4] |
| --- | --- | --- | --- | --- | --- | --- |
| OC[C@H]1O[C@H](O[C@H]2[C@H](O)[C@@H](O)[C@H](OCCCC3(F)C(F)(F)C(F)(F)C(F)(F)C(F)(F)C3(F)F)O[C@@H]2CO)[C@H](O)[C@@H](O)[C@@H]1O [Compound 5a, 3-(perfluorocyclohexyl)-propoxy-4-O—(α-D-glucopyranosyl)-β-D-glucopyranoside] | 3.47 mM | 23.9 mN/m | efficiently extracted membrane-proteins; also recorded: higher membrane-protein extraction yield than F6OM and F6OPC | better solubilization efficiencies than DDM | ~2 h |  |
| OC[C@H]1O[C@H](O[C@H]2[C@H](O)[C@@H](O)[C@H](OCCCCC3(F)C(F)(F)C(F)(F)C(F)(F)C(F)(F)C3(F)F)O[C@@H]2CO)[C@H](O)[C@@H](O)[C@@H]1O [Compound 5b, 4-(perfluorocyclohexyl)-butoxy-4-O—(α-D-glucopyranosyl)-β-D-glucopyranoside] | 2.29 mM | 22.7 mN/m |  |  |  |  |
| OC[C@H]1O[C@H](O[C@H]2[C@H](O)[C@@H](O)[C@H](OCCCCCC3(F)C(F)(F)C(F)(F)C(F)(F)C(F)(F)C3(F)F)O[C@@H]2CO)[C@H](O)[C@@H](O)[C@@H]1O [Compound 5c, 5-(perfluorocyclohexyl)-pentoxy-4-O—(α-D-glucopyranosyl)-β-D-glucopyranoside] | 0.70 mM | 23.16 mN/m |  |  |  |  |
| OC[C@H]1O[C@H](O[C@H]2[C@H](O)[C@@H](O)[C@H](OCCCC(F)(F)C(F)(F)C(F)(C(F)(F)F)C(F)(F)F)O[C@@H]2CO)[C@H](O)[C@@H](O)[C@@H]1O [Compound 8a, 3-(perfluoroisopentyl)-propoxy-4-O—(α-D-glucopyranosyl)-β-D-glucopyranoside] | 2.66 mM | 22.5 mN/m |  |  |  |  |
| OC[C@H]1O[C@H](O[C@H]2[C@H](O)[C@@H](O)[C@H](OCCCC(F)(F)C(F)(F)C(F)(F)C(F)(F)C(F)(C(F)(F)F)C(F)(F)F)O[C@@H]2CO)[C@H](O)[C@@H](O)[C@@H]1O [Compound 8b, 3-(perfluoroisoheptyl)-propoxy-4-O—(α-D-glucopyranosyl)-β-D-glucopyranoside] | 0.11 mM | 17.4 mN/m |  |  |  |  |
| OC[C@H]1O[C@H](O[C@H]2[C@H](O)[C@@H](O)[C@H](OCCCCCC(F)(F)C(F)(F)C(F)(C(F)(F)F)C(F)(F)F)O[C@@H]2CO)[C@H](O)[C@@H](O)[C@@H]1O [Compound 8c, 5-(perfluoroisopentyl)-pentoxy-4-O—(α-D-glucopyranosyl)-β-D-glucopyranoside] | 0.53 mM | 22.1 mN/m |  |  |  |  |
| O=C(NCCCC1(F)C(F)(F)C(F)(F)C(F)(F)C(F)(F)C1(F)F)C(O)[C@H](O)[C@H](O[C@@H]1OC(CO)[C@H](O)[C@H](O)C1O)C(O)CO (stereo partly drawn) [Compound 12, 3-(perfluorocyclohexyl)-N-propane Octahydroxy lactobionamide] | 6.32 mM | 24.4 mN/m |  |  |  |  |
| C[N+](C)(CCCCCC1(F)C(F)(F)C(F)(F)C(F)(F)C(F)(F)C1(F)F)CCCS(=O)(=O)[O-] [Compound 17, 3-(dimethyl(5-(perfluorocyclohexyl)pentyl)ammonio)propane-1-sulfonate] | 3.20 mM | 23.7 mN/m |  |  |  |  |
| OC[C@H]1O[C@H](O[C@H]2[C@H](O)[C@@H](O)[C@H](OCCC(F)(F)C(F)(F)C(F)(F)C(F)(F)C(F)(F)C(F)(F)F)O[C@@H]2CO)[C@H](O)[C@@H](O)[C@@H]1O [Compound F6OM, (1H, 1H, 2H, 2H-Perfluorooctyl)-β-D-Maltopyranoside, reference compound] |  |  | very limited solubilization |  |  | 0.7 mM |
| C[N+](C)(C)CCOP(=O)([O-])OCCC(F)(F)C(F)(F)C(F)(F)C(F)(F)C(F)(F)C(F)(F)F [Compound F6OPC, (1H, 1H, 2H, 2H-Perfluorooctyl)phosphocholine, reference compound] |  |  | very limited solubilization |  |  | 2.9 mM |
| CCCCCCCCCCCCO[C@@H]1O[C@H](CO)[C@@H](O[C@H]2O[C@H](CO)[C@@H](O)[C@H](O)[C@H]2O)[C@H](O)[C@H]1O [DDM, n-dodecyl-β-D-maltoside] |  |  |  |  |  | 0.17 mM |

— patent publication US20240247207A1, “MALTOSIDE-, LACTOBIONAMIDE-, MONOGLUCOSIDE-, BRANCHED DIGLUCOSIDE-, SULFOBETAINE-, SULFATE- OR AMINOOXIDE-BASED PERFLUORINATED DETERGENTS AND THEIR USE IN MEMBRANE-PROTEINS APPLICATIONS” (AVIGNON UNIVERSITE, priority 2021, published 2024)
